The text below walks through data of ChEMBL document CHEMBL4334471, “Discovery of 1,8-disubstituted-[1,2,3]triazolo[4,5-c]quinoline derivatives as a new class of Hippo signaling pathway inhibitors” (Bioorg Med Chem Lett, 2019).

Experiment [1] has as its target Testis-specific serine/threonine-protein kinase 3 (Homo sapiens) (UniProt Q96PN8). Description: Inhibition of recombinant full-length human TSSK3 assessed as residual activity at 10 uM using AMARAASAAALARRR as substrate incubated for 40 mins in presence of [gamma33P]ATP by scintillation counting based radiometry assay relative to control.
The target in experiment [2] is Fibroblast growth factor receptor 1 (Homo sapiens) (UniProt P11362). Description: Inhibition of recombinant human FGFR1 (456 to 765 residues) assessed as residual activity at 10 uM using KKKSPGEYVNIEF as substrate at 40 mins in presence of [gamma-33ATP] by scintillation counting based radiometry assay relative to control.
Chain of Fibroblast growth factor receptor 1 (Homo sapiens) (P11362 22-822 limits assumed): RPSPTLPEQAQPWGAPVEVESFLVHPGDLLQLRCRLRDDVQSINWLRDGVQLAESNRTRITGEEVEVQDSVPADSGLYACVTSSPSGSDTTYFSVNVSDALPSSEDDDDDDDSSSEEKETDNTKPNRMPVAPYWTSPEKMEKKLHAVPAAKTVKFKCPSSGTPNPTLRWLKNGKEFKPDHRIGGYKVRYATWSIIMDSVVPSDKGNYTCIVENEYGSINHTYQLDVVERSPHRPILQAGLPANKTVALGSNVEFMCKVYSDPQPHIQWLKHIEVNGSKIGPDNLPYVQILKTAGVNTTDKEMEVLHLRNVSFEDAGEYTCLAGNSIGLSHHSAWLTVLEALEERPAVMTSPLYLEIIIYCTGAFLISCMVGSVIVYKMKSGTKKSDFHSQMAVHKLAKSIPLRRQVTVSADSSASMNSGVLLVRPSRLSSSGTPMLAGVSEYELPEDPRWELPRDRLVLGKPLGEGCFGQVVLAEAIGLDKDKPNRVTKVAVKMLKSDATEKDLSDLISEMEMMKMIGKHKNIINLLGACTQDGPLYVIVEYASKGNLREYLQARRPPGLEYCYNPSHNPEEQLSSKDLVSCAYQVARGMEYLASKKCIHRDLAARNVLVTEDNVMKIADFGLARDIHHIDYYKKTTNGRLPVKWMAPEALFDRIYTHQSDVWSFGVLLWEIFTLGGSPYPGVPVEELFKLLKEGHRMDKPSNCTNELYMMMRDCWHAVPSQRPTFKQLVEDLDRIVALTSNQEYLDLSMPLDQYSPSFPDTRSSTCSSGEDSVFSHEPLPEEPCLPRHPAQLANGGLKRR
Experiment [3] deals with Cyclin-dependent kinase 2/cyclin E1 (Homo sapiens) (UniProt P24864+P24941). As to the kind of experiment: Inhibition of recombinant full length human CDK2/CyclinE assessed as residual activity at 10 uM using Histone H1 as substrate incubated for 40 mins in presence of [gamma-33ATP] by scintillation counting based radiometry assay relative to control. In kind it is protein-complex assay.

Experiment [4] concerns the target Serine/threonine-protein kinase WNK4 (Homo sapiens) (UniProt Q96J92). Description: Inhibition of recombinant human WNK4 (A31 to D461 residues) assessed as residual activity at 10 uM using myelin basic protein as substrate incubated for 40 mins in presence of [gamma33P]ATP by scintillation counting based radiometry assay relative to control.
For experiment [5], the target named is Cyclin-dependent kinase 5/CDK5 activator 1 (Homo sapiens) (UniProt Q00535+Q15078). As to the kind of experiment: Inhibition of recombinant full length human CDK5/p25 assessed as residual activity at 10 uM using histone H1 as substrate incubated for 40 mins in presence of [gamma-33ATP] by scintillation counting based radiometry assay relative to control. In kind it is protein-complex assay.

For experiment [6], the target named is Receptor-type tyrosine-protein kinase FLT3 (Homo sapiens) (UniProt P36888). As to the kind of experiment: Inhibition of recombinant human FLT3 (564 to end residues) assessed as residual activity at 10 uM using EAIYAAPFAKKK as substrate at 40 mins in presence of [gamma-33ATP] by scintillation counting based radiometry assay relative to control.
Chain of Receptor-type tyrosine-protein kinase FLT3 (Homo sapiens) (P36888 whole entry): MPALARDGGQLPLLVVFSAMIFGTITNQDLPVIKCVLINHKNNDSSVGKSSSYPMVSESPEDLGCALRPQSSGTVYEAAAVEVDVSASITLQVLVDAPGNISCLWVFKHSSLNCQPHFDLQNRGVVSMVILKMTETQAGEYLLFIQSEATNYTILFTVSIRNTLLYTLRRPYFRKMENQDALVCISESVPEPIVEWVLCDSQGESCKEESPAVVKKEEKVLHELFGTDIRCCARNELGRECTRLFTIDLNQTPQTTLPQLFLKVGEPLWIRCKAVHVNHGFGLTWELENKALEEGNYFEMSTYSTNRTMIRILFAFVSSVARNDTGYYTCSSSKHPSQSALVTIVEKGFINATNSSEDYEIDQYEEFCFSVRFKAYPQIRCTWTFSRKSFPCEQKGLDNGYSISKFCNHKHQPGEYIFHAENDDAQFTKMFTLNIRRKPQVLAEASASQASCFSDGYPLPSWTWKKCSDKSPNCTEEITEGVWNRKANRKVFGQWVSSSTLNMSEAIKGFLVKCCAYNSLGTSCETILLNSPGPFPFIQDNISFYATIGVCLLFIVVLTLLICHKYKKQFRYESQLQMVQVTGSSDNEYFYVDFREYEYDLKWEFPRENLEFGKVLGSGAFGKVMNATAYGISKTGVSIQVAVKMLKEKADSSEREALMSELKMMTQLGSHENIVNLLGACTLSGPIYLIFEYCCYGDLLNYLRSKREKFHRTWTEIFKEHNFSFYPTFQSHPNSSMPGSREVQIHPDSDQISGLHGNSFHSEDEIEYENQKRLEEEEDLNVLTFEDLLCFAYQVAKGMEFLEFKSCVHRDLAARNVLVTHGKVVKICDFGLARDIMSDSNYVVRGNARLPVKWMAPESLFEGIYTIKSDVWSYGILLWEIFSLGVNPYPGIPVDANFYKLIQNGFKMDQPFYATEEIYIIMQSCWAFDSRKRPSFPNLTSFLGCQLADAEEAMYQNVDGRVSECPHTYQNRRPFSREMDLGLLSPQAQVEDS
Experiment [7] concerns Tyrosine-protein kinase ABL1 (Homo sapiens), P00519 [Y253F]. Description: Inhibition of human ABL1 Y253F mutant (27 to end residues) assessed as residual activity at 10 uM using EAIYAAPFAKKK as substrate incubated for 40 mins in presence of [gamma-33ATP] by scintillation counting based radiometry assay relative to control.
In experiment [8] the target is Tyrosine-protein kinase TXK (Homo sapiens) (UniProt P42681). As to the kind of experiment: Inhibition of recombinant human Txk (256 to end residues) assessed as residual activity at 10 uM using GEEPLYWSFPAKKK as substrate incubated for 40 mins in presence of [gamma33P]ATP by scintillation counting based radiometry assay relative to control.
Chain of Tyrosine-protein kinase TXK (Homo sapiens) (P42681 whole entry): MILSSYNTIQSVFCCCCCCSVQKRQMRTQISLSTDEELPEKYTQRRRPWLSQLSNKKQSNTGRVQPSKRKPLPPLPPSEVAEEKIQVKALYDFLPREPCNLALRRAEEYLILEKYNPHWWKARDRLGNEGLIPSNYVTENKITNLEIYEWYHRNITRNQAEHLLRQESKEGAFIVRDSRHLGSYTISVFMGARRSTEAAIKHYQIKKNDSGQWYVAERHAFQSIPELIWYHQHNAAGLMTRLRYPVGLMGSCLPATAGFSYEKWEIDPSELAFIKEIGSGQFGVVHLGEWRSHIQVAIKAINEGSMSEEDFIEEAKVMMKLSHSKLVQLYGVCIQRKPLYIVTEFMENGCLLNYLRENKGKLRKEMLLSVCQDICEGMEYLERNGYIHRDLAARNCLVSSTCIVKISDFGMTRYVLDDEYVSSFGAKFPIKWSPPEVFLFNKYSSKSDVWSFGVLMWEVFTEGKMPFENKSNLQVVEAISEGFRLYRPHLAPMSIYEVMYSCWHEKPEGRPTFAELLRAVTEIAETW
In experiment [9] the target is Serine/threonine-protein kinase 3 (Homo sapiens, UniProt Q13188). As to the kind of experiment: Inhibition of recombinant human MST2 (2 to end residues) assessed as residual activity using myelin basic protein as substrate measured after 40 mins in presence of [gamma33P]ATP by scintillation counting based radiometry assay.
Chain of Serine/threonine-protein kinase 3 (Q13188 whole entry): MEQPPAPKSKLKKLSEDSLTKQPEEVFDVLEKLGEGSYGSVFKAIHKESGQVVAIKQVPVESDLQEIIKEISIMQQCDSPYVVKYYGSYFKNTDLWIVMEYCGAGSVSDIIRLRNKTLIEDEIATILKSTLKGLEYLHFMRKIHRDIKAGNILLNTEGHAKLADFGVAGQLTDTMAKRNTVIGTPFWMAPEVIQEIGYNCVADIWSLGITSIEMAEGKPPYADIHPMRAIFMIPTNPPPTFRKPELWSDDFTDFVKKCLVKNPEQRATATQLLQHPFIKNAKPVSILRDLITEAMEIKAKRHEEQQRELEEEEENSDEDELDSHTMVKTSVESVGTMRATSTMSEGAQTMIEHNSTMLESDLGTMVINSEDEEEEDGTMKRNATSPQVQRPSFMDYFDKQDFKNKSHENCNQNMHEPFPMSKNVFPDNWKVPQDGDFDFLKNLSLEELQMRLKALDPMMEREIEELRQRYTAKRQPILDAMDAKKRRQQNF
The species named for another experiment is Mus musculus. Description: Inhibition of mouse MAPK2 assessed as residual activity at 10 uM relative to control.
The species named for a further experiment is Homo sapiens. As to the kind of experiment: Inhibition of recombinant human MER H628Q/R794A mutant (557 to 882 residues) assessed as residual activity at 10 uM using KKLNRTLSFAEPG as substrate incubated for 40 mins in presence of [gamma-33ATP by scintillation counting based radiometry assay relative to control.
Experiment [10] addresses Serine/threonine-protein kinase TBK1 (Homo sapiens) (UniProt Q9UHD2). Description: Inhibition of recombinant full length human TBK1 assessed as residual activity at 10 uM using KRRRALS(p)VASLPGL as substrate incubated for 40 mins in presence of [gamma33P]ATP by scintillation counting based radiometry assay relative to control.
The target of experiment [11] is Activated CDC42 kinase 1 (Homo sapiens) (UniProt Q07912). As to the kind of experiment: Inhibition of human ACK1 (1 to 389 residues) assessed as residual activity at 10 uM using EFPIYDFLPAKKK as substrate incubated for 40 mins in presence of [gamma-33ATP] by scintillation counting based radiometry assay relative to control.
The target in experiment [12] is Serine/threonine-protein kinase PAK 4 (Homo sapiens) (UniProt O96013). Description: Inhibition of recombinant human PAK4 (295 to end residues) assessed as residual activity at 10 uM using myelin basic protein as substrate measured after 40 mins in presence of [gamma33P]ATP by scintillation counting based radiometry assay relative to control.
The target in experiment [13] is Insulin-like growth factor 1 receptor (Homo sapiens) (UniProt P08069). Description: Inhibition of human IGF1R (959 to end residues) assessed as residual activity at 10 uM using KKKSPGEYVNIEFGF as substrate after 40 mins by [gamma-33ATP] radiometric assay relative to control.
For experiment [14], the target named is Casein kinase I isoform gamma-2 (Homo sapiens) (UniProt P78368). Description: Inhibition of recombinant human CK1gamma2 (18 to end residues) assessed as residual activity at 10 uM using KRRRALS(p)VASLPGL as substrate incubated for 40 mins in presence of [gamma-33ATP] by scintillation counting based radiometry assay relative to control.
For experiment [15], the target named is Serine/threonine-protein kinase WNK3 (Homo sapiens) (UniProt Q9BYP7). As to the kind of experiment: Inhibition of recombinant human WNK3 (1 to 434 residues) assessed as residual activity at 10 uM using myelin basic protein as substrate incubated for 40 mins in presence of [gamma33P]ATP by scintillation counting based radiometry assay relative to control.

The target in experiment [16] is CDK17/Cyclin-Y (Homo sapiens) (UniProt Q00537+Q8ND76). As to the kind of experiment: Inhibition of recombinant full length human CDK17/cyclinY assessed as residual activity at 10 uM using PKSPKARKKL as substrate incubated for 40 mins in presence of [gamma-33ATP] by scintillation counting based radiometry assay relative to control. It counts as protein-complex assay.

Experiment [17] has as its system Ribosomal protein S6 kinase alpha-1 (Rattus norvegicus), Q63531 [S637N,G697A]. As to the kind of experiment: Inhibition of recombinant full length rat Rsk1 S637N/G697A mutant assessed as residual activity at 10 uM using KKKNRTLSVA as substrate incubated for 40 mins in presence of [gamma33P]ATP by scintillation counting based radiometry assay relative to control.

For experiment [18], the target named is LIM domain kinase 2 (Homo sapiens) (UniProt P53671). Description: Inhibition of recombinant human LIMK2 assessed as residual activity after 10 uM by scintillation counting based radiometry assay relative to control.
Chain of LIM domain kinase 2 (Homo sapiens) (P53671 whole entry, looked up, the tested form may be a part): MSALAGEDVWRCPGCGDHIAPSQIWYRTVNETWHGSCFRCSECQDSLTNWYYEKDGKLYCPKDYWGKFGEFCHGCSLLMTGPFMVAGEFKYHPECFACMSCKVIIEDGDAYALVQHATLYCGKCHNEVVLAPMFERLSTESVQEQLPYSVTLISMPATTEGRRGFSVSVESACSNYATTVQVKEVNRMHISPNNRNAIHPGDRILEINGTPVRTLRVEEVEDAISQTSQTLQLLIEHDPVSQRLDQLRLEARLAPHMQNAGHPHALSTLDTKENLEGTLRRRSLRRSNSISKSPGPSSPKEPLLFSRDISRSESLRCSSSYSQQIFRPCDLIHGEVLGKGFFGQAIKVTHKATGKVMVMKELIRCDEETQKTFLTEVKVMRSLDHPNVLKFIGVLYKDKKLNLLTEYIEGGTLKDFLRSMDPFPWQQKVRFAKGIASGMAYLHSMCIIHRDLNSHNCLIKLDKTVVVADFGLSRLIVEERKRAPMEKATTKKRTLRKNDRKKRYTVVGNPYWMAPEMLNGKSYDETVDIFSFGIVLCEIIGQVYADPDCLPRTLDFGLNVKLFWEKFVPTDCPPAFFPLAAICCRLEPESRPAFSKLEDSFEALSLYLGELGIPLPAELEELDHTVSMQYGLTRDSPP
The target in experiment [19] is Tyrosine-protein kinase HCK (Homo sapiens) (UniProt P08631). Description: Inhibition of human HCK activated (230 to 497 residues) assessed as residual activity at 10 uM using GGMEDIYFEFMGGKKK as substrate after 40 mins by [gamma-33ATP] radiometric assay relative to control.
Experiment [20] deals with Ribosomal protein S6 kinase alpha-5 (Homo sapiens) (UniProt O75582). Description: Inhibition of recombinant human MSK1 (2 to end residues) assessed as residual activity at 10 uM using GRPRTSSFAEGKK as substrate incubated for 40 mins in presence of [gamma-33ATP by scintillation counting based radiometry assay relative to control.

Molecules are shown by their SMILES. pIC50: −log10 of the molar value. A value given as a limit tells only on which side of the number the result lay.

As usually defined, the pIC50 is −log10 of the IC50, conventionally taken in molar units.

Chain of Serine/threonine-protein kinase WNK4 (Homo sapiens) (Q96J92 whole entry, the tested form may be a part): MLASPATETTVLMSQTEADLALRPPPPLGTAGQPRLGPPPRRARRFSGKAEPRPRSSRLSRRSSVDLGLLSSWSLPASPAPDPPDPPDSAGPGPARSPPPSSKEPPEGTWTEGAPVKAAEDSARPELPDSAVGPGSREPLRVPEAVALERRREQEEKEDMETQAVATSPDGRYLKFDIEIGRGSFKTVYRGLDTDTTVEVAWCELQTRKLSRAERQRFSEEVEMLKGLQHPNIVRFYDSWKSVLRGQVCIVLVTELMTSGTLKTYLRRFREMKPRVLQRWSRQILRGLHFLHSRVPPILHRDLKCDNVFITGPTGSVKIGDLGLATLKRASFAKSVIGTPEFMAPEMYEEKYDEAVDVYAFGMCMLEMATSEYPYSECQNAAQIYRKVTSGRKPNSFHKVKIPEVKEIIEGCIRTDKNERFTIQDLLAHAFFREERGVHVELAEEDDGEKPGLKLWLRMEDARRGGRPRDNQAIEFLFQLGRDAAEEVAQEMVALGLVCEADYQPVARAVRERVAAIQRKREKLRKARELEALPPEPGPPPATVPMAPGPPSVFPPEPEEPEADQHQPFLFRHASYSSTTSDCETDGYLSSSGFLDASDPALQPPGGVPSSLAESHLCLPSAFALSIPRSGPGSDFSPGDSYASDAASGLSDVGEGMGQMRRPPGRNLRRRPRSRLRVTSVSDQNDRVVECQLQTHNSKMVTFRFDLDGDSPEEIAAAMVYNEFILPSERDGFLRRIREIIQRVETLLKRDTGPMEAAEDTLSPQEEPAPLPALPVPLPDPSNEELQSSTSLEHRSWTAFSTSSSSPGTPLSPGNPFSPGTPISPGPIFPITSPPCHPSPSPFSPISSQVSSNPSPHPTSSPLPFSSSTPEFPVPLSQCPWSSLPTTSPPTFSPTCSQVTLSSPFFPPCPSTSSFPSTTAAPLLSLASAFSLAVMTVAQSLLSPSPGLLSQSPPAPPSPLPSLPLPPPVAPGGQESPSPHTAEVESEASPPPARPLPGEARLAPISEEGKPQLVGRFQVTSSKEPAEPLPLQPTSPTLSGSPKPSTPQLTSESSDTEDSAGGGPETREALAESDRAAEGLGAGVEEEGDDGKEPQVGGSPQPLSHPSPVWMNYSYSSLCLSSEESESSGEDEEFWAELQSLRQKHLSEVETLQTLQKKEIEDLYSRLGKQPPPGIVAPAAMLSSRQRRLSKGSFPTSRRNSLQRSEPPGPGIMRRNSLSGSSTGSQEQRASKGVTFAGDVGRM
Chain of Testis-specific serine/threonine-protein kinase 3 (Homo sapiens) (Q96PN8 whole entry, the tested form may be a part): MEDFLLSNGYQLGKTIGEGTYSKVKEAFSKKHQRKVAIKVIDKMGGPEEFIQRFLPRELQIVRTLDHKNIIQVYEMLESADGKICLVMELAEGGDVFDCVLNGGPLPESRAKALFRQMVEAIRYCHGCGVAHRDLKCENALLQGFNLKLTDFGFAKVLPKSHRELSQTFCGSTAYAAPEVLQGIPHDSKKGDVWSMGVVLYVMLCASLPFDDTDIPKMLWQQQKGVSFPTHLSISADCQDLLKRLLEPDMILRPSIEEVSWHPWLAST

For the molecule `C[C@@H](c1ccccc1)n1nnc2cnc3ccc(-c4cnc5[nH]ccc5c4)cc3c21`, the Activity in experiment [1] turned out to be 64%; in experiment [2] it was 34%; in [3], 72%; in experiment [4], 96%; in [5] it was 93%; in experiment [6], 28%. Moreover, the Activity in experiment [7] was found to be 6%; in [8], 23%; in the experiment listed under Mus musculus, 100%; in the experiment listed under Homo sapiens it was 56%; in experiment [10], 85%; in [11] it was 22%. Also, the Activity worked out at 88% in experiment [12]; 50% in experiment [13]; 73% in [14]; 99% in [15]; 85% in [16]; 71% in [17]. Besides, the Activity in experiment [18] was 56%; in experiment [19], 21%; in experiment [20], 55%. The pIC50 in [9] is less than 5.00.
